Measurements taken from US8940909B2, “Indicator platform” (Biosynth AG, priority 2009, dated 2015).

Experiments:
Format in all cases: cell-based
[1] = tested on: Serratia marcescens 40; experiment: IO staining of colonies of beta-D-galactosidase positive/negative bacteria (Table IVb); settings: Serratia marcescens strain 40, b-gal +; 24 h on Nutrient Agar, 150 mg/l indicator, 100 mg/l IPTG; on G: Growth of colonies: key: −: absent; +/−: weak; +: strong; ++: very strong
[2] = tested on: Escherichia coli 270; experiment: as above; settings: Escherichia coli strain 270, b-gal +; 24 h on Nutrient Agar, 150 mg/l indicator, 100 mg/l IPTG; on C: Color of colonies: key: −: absent; +/−: weak; +: strong; ++: very strong; on G: Growth of colonies: key: −: absent; +/−: weak; +: strong; ++: very strong
[3] = tested on: Klebsiella pneumoniae 164; experiment: as above; settings: Klebsiella pneumoniae strain 164, b-gal +; 24 h on Nutrient Agar, 150 mg/l indicator, 100 mg/l IPTG; on C: Color of colonies: key: −: absent; +/−: weak; +: strong; ++: very strong; on G: Growth of colonies: key: −: absent; +/−: weak; +: strong; ++: very strong
[4] = tested on: Salmonella bongori 81; experiment: as above; settings: Salmonella bongori strain 81, b-gal +; 24 h on Nutrient Agar, 150 mg/l indicator, 100 mg/l IPTG; on C: Color of colonies: key: −: absent; +/−: weak/variable; +: strong; on G: Growth of colonies: key: −: absent; +/−: weak; +: strong; ++: very strong
[5] = tested on: Enterobacter aerogenes 242; experiment: as above; settings: Enterobacter aerogenes strain 242, b-gal +; 24 h on Nutrient Agar, 150 mg/l indicator, 100 mg/l IPTG; on C: Color of colonies: key: −: absent; +/−: weak; +: strong; ++: very strong; on G: Growth of colonies: key: −: absent; +/−: weak; +: strong; ++: very strong
[6] = tested on: Escherichia coli (O157:H7) 60; experiment: as above; settings: Escherichia coli (O157:H7) strain 60, b-gal +; 24 h on Nutrient Agar, 150 mg/l indicator, 100 mg/l IPTG
[7] = tested on: Streptococcus agalactiae 195; experiment: as above; settings: Streptococcus agalactiae strain 195, b-gal −; 24 h on Nutrient Agar, 150 mg/l indicator, 100 mg/l IPTG; on C: Color of colonies: key: −: absent; +/−: weak; +: strong; ++: very strong; on F: Fluorescence of colonies: key: −: absent; +/−: weak; +: strong; ++: very strong
[8] = tested on: Staphylococcus intermedius 31; experiment: as above; settings: Staphylococcus intermedius strain 31, b-gal +; 24 h on Nutrient Agar, 150 mg/l indicator, 100 mg/l IPTG
[9] = tested on: Salmonella illa 73; experiment: as above; settings: Salmonella illa strain 73, b-gal +; 24 h on Nutrient Agar, 150 mg/l indicator, 100 mg/l IPTG; further: key: −: absent; +/−: weak; +: strong; ++: very strong
[10] = tested on: Staphylococcus aureus 2; experiment: as above; settings: Staphylococcus aureus strain 2, b-gal −, 24 h on Nutrient Agar, 150 mg/l indicator, 100 mg/l IPTG; for C: Color of colonies: footnote 2: S. aureus natural color; on F: Fluorescence of colonies: key: −: absent; +/−: weak; +: strong; ++: very strong
[11] = tested on: Shigella dysenteriae Serovar 1 131; experiment: as above; settings: Shigella dysenteriae Serovar 1 strain 131, b-gal +/−; 24 h on Nutrient Agar, 150 mg/l indicator, 100 mg/l IPTG
[12] = tested on: Pseudomonas aeruginosa 168; experiment: as above; settings: Pseudomonas aeruginosa strain 168, b-gal −, 24 h on Nutrient Agar, 150 mg/l indicator, 100 mg/l IPTG; for F: Fluorescence of colonies: footnote 1: blue autofluorescence; on C: Color of colonies: key: −: absent; +/−: weak; +: strong; ++: very strong; on G: Growth of colonies: key: −: absent; +/−: weak; +: strong; ++: very strong
[13] = tested on: Bacillus subtilis 65; experiment: as above; settings: Bacillus subtilis strain 65, b-gal −; 24 h on Nutrient Agar, 150 mg/l indicator, 100 mg/l IPTG; on C: Color of colonies: key: −: absent; +/−: weak; +: strong; ++: very strong; on F: Fluorescence of colonies: key: −: absent; +/−: weak; +: strong; ++: very strong
[14] = tested on: Staphylococcus saprophyticus 273; experiment: as above; settings: Staphylococcus saprophyticus strain 273, b-gal +; 24 h on Nutrient Agar, 150 mg/l indicator, 100 mg/l IPTG; on G: Growth of colonies: key: −: absent; +/−: weak; +: strong; ++: very strong
[15] = tested on: Salmonella enteritidis 43; experiment: as above; settings: Salmonella enteritidis strain 43, b-gal −; 24 h on Nutrient Agar, 150 mg/l indicator, 100 mg/l IPTG; further: key: −: absent; +/−: weak; +: strong; ++: very strong
[16] = tested on: Listeria monocytogenes (4b) 290; experiment: as above; settings: Listeria monocytogenes (4b) strain 290, b-gal −; 24 h on Nutrient Agar, 150 mg/l indicator, 100 mg/l IPTG; on C: Color of colonies: key: −: absent; +/−: weak; +: strong; ++: very strong; on F: Fluorescence of colonies: key: −: absent; +/−: weak; +: strong; ++: very strong
[17] = tested on: Aeromonas hydrophila 292; experiment: as above; settings: Aeromonas hydrophila strain 292, b-gal +; 24 h on Nutrient Agar, 150 mg/l indicator, 100 mg/l IPTG; on G: Growth of colonies: key: −: absent; +/−: weak; +: strong; ++: very strong
[18] = tested on: Citrobacter freundii 181; experiment: as above; settings: Citrobacter freundii strain 181, b-gal +; 24 h on Nutrient Agar, 150 mg/l indicator, 100 mg/l IPTG; on C: Color of colonies: key: −: absent; +/−: weak; +: strong; ++: very strong; on G: Growth of colonies: key: −: absent; +/−: weak; +: strong; ++: very strong
[19] = tested on: Shigella sonnei 133; experiment: as above; settings: Shigella sonnei strain 133, b-gal +/−; 24 h on Nutrient Agar, 150 mg/l indicator, 100 mg/l IPTG; on C: Color of colonies: key: −: absent; +/−: weak; +: strong; ++: very strong; on G: Growth of colonies: key: −: absent; +/−: weak; +: strong; ++: very strong
[20] = tested on: Yersinia enterocolitica 175; experiment: as above; settings: Yersinia enterocolitica strain 175, b-gal +/−; 24 h on Nutrient Agar, 150 mg/l indicator, 100 mg/l IPTG; on G: Growth of colonies: key: −: absent; +/−: weak; +: strong; ++: very strong
[21] = tested on: Shigella boydii 135; experiment: as above; settings: Shigella boydii strain 135, b-gal −; 24 h on Nutrient Agar, 150 mg/l indicator, 100 mg/l IPTG; further: key: −: absent; +/−: weak; +: strong; ++: very strong
[22] = tested on: Escherichia coli; experiment: IN and IO staining of bacterial colonies under anaerobic conditions; settings: Nutrient Agar plates, anaerobically incubated with E. coli
Method: Nutrient Agar plates containing 150 mg/l of various substrates and 100 mg/l IPTG were inoculated with Escherichia coli. Plates were put in an anaerobic jar (Anaerojar, Oxoid), an AnaeroGen sachet (Oxoid) was added, the jar was closed and incubated for 24 hours at 37° C.
IN staining cannot be used under anaerobic conditions.

[23] = tested on: Enterobacter cloacae 245; experiment: IO staining of colonies of beta-D-galactosidase positive/negative bacteria (Table IVb); settings: Enterobacter cloacae strain 245, b-gal +; 24 h on Nutrient Agar, 150 mg/l indicator, 100 mg/l IPTG; on C: Color of colonies: key: −: absent; +/−: weak; +: strong; ++: very strong; on G: Growth of colonies: key: −: absent; +/−: weak; +: strong; ++: very strong
[24] = tested on: Escherichia coli 61; experiment: as above; settings: Escherichia coli strain 61, b-gal +; 24 h on Nutrient Agar, 150 mg/l indicator, 100 mg/l IPTG; on C: Color of colonies: key: −: absent; +/−: weak; +: strong; ++: very strong; on G: Growth of colonies: key: −: absent; +/−: weak; +: strong; ++: very strong

COc1ccc(C(=O)c2ccccc2-n2cc(O[C@@H]3O[C@H](CO)[C@H](O)[C@H](O)[C@H]3O)c3ccc(Cl)cc32)c(OC)c1 [Indicator I27a, 6-Chloro-1-[2-(2,4-dimethoxybenzoyl)phenyl]-1H-indol-3-yl-beta-D-galactopyranoside]
C: Color of colonies [1]: + | F: Fluorescence of colonies [1]: + | G: Growth of colonies [1]: + | C: Color of colonies [2]: ++ | F: Fluorescence of colonies [2]: ++ | G: Growth of colonies [2]: + | C: Color of colonies [3]: + | F: Fluorescence of colonies [3]: + | G: Growth of colonies [3]: + | C: Color of colonies [4]: +/− | F: Fluorescence of colonies [4]: +/− | G: Growth of colonies [4]: + | C: Color of colonies [5]: + | F: Fluorescence of colonies [5]: + | G: Growth of colonies [5]: + | C: Color of colonies [6]: ++ | F: Fluorescence of colonies [6]: ++ | G: Growth of colonies [6]: + | C: Color of colonies [7]: − | F: Fluorescence of colonies [7]: − | G: Growth of colonies [7]: +/− | C: Color of colonies [8]: − | F: Fluorescence of colonies [8]: − | G: Growth of colonies [8]: +/− | C: Color of colonies [9]: − | F: Fluorescence of colonies [9]: − | G: Growth of colonies [9]: + | F: Fluorescence of colonies [10]: − | G: Growth of colonies [10]: +/− | C: Color of colonies [10]: − | C: Color of colonies [11]: − | F: Fluorescence of colonies [11]: − | G: Growth of colonies [11]: + | C: Color of colonies [12]: − | G: Growth of colonies [12]: + | F: Fluorescence of colonies [12]: +^1 | C: Color of colonies [13]: − | F: Fluorescence of colonies [13]: − | G: Growth of colonies [13]: + | C: Color of colonies [14]: +/− | F: Fluorescence of colonies [14]: +/− | G: Growth of colonies [14]: + | C: Color of colonies [15]: − | F: Fluorescence of colonies [15]: − | G: Growth of colonies [15]: + | C: Color of colonies [16]: − | F: Fluorescence of colonies [16]: − | G: Growth of colonies [16]: +/− | C: Color of colonies [17]: + | F: Fluorescence of colonies [17]: + | G: Growth of colonies [17]: + | C: Color of colonies [18]: + | F: Fluorescence of colonies [18]: + | G: Growth of colonies [18]: + | C: Color of colonies [19]: + | F: Fluorescence of colonies [19]: ++ | G: Growth of colonies [19]: + | C: Color of colonies [20]: +/− | F: Fluorescence of colonies [20]: − | G: Growth of colonies [20]: + | C: Color of colonies [21]: − | F: Fluorescence of colonies [21]: − | G: Growth of colonies [21]: + | C: Color of colonies [22]: y-o | D: Diffusion around colonies [22]: +/− | G: Growth of colonies [22]: + | I: Intensity of color [22]: + | L: Localization on colonies [22]: + | S: Size of colonies [22]: 1 mm | C: Color of colonies [23]: ++ | F: Fluorescence of colonies [23]: ++ | G: Growth of colonies [23]: + | C: Color of colonies [24]: ++ | F: Fluorescence of colonies [24]: ++ | G: Growth of colonies [24]: +

Cn1cccc1C(=O)c1ccccc1-n1cc(O[C@@H]2O[C@H](CO)[C@H](O)[C@H](O)[C@H]2O)c2ccc(Cl)cc21 [Indicator I31a, 6-Chloro-1-[2-(N-methylpyrrole-2-carbonyl)phenyl]-1H-indol-3-yl-beta-D-galactopyranoside]
C: Color of colonies [1]: + | F: Fluorescence of colonies [1]: − | G: Growth of colonies [1]: + | C: Color of colonies [2]: + | F: Fluorescence of colonies [2]: +/− | G: Growth of colonies [2]: + | C: Color of colonies [3]: + | F: Fluorescence of colonies [3]: +/− | G: Growth of colonies [3]: + | C: Color of colonies [4]: +/− | F: Fluorescence of colonies [4]: − | G: Growth of colonies [4]: + | C: Color of colonies [5]: + | F: Fluorescence of colonies [5]: +/− | G: Growth of colonies [5]: + | C: Color of colonies [6]: + | F: Fluorescence of colonies [6]: +/− | G: Growth of colonies [6]: + | C: Color of colonies [7]: − | F: Fluorescence of colonies [7]: − | G: Growth of colonies [7]: +/− | C: Color of colonies [8]: + | F: Fluorescence of colonies [8]: − | G: Growth of colonies [8]: + | C: Color of colonies [9]: − | F: Fluorescence of colonies [9]: − | G: Growth of colonies [9]: + | F: Fluorescence of colonies [10]: − | G: Growth of colonies [10]: + | C: Color of colonies [10]: − | C: Color of colonies [11]: − | F: Fluorescence of colonies [11]: − | G: Growth of colonies [11]: + | C: Color of colonies [12]: − | G: Growth of colonies [12]: + | F: Fluorescence of colonies [12]: − | C: Color of colonies [13]: − | F: Fluorescence of colonies [13]: − | G: Growth of colonies [13]: + | C: Color of colonies [14]: + | F: Fluorescence of colonies [14]: − | G: Growth of colonies [14]: + | C: Color of colonies [15]: − | F: Fluorescence of colonies [15]: − | G: Growth of colonies [15]: + | C: Color of colonies [16]: − | F: Fluorescence of colonies [16]: − | G: Growth of colonies [16]: +/− | C: Color of colonies [17]: + | F: Fluorescence of colonies [17]: − | G: Growth of colonies [17]: + | C: Color of colonies [18]: + | F: Fluorescence of colonies [18]: +/− | G: Growth of colonies [18]: + | C: Color of colonies [19]: + | F: Fluorescence of colonies [19]: +/− | G: Growth of colonies [19]: + | C: Color of colonies [20]: +/− | F: Fluorescence of colonies [20]: − | G: Growth of colonies [20]: + | C: Color of colonies [21]: − | F: Fluorescence of colonies [21]: − | G: Growth of colonies [21]: + | C: Color of colonies [22]: o-r | D: Diffusion around colonies [22]: + | G: Growth of colonies [22]: + | I: Intensity of color [22]: + | L: Localization on colonies [22]: +/− | S: Size of colonies [22]: 0.8 mm | C: Color of colonies [23]: + | F: Fluorescence of colonies [23]: +/− | G: Growth of colonies [23]: + | C: Color of colonies [24]: + | F: Fluorescence of colonies [24]: +/− | G: Growth of colonies [24]: +
